Data as given in patent publication US12331044B2, “Inhibitors of histone deacetylase useful for the treatment or prevention of HIV infection” (Merck Sharp & Dohme LLC, priority 2018, dated 2025).
Like-named read-outs stand apart in the source and are kept apart here.

What was measured:
HDAC6 = HDAC6 (Homo sapiens (Human), UniProt Q9UBN7); experiment: biochemical
human HDAC2 = human HDAC2 (Homo sapiens (Human), UniProt Q92769); experiment: HDAC2 inhibition assay (modified FLUOR DE LYS, 384-well); format: biochemical; conditions: […] nM enzyme, 40 μM substrate BML-KI104, 3 h pre-incubation; read-out: HDAC2 IC50
Chain of human HDAC2 (Q92769 whole entry): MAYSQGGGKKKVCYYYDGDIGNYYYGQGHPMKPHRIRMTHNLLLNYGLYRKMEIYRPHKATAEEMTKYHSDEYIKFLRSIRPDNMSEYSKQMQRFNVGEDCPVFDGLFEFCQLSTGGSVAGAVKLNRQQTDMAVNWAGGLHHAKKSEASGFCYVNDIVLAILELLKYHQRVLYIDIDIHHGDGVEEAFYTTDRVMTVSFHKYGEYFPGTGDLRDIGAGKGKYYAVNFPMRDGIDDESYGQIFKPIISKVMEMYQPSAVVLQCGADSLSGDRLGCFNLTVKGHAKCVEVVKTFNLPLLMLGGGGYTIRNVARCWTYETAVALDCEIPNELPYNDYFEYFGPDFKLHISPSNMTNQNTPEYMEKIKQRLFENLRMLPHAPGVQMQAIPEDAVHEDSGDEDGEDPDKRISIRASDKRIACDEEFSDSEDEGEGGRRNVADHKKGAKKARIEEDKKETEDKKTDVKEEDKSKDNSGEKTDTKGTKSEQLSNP

human HDAC1 = human HDAC1 (Homo sapiens (Human), UniProt Q13547); experiment: biochemical
Chain of human HDAC1 (Q13547 whole entry): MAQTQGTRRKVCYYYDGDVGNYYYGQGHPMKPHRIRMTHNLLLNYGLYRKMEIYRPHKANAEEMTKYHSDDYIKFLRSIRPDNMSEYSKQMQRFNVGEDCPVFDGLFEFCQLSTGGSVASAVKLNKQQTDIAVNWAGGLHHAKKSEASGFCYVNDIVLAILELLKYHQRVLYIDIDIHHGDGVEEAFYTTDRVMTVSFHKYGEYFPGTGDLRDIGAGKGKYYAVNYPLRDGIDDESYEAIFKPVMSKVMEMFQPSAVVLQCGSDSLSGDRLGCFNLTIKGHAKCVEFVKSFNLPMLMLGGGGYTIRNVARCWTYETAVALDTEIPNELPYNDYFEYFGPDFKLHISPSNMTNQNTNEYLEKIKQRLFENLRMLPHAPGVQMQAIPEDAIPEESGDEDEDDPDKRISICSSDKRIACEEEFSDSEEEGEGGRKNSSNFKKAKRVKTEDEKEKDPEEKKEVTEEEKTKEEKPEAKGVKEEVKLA

[1] = target: human HDAC3/SMRT heterodimer (Homo sapiens (Human), UniProt O15379); experiment: biochemical
Chain of human HDAC3/SMRT heterodimer (O15379 whole entry): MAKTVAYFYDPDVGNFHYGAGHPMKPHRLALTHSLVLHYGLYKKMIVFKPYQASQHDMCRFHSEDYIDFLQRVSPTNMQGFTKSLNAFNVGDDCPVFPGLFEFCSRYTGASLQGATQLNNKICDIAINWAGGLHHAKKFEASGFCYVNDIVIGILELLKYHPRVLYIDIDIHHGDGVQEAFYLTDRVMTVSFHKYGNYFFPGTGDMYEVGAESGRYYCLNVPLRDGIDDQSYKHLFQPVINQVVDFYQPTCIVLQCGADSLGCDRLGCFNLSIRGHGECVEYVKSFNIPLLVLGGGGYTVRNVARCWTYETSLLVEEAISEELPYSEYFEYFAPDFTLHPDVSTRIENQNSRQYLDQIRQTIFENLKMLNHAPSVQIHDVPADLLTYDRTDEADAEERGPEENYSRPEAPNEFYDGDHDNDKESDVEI
Chain of human HDAC3/SMRT heterodimer (Q9Y618 1-899 partner): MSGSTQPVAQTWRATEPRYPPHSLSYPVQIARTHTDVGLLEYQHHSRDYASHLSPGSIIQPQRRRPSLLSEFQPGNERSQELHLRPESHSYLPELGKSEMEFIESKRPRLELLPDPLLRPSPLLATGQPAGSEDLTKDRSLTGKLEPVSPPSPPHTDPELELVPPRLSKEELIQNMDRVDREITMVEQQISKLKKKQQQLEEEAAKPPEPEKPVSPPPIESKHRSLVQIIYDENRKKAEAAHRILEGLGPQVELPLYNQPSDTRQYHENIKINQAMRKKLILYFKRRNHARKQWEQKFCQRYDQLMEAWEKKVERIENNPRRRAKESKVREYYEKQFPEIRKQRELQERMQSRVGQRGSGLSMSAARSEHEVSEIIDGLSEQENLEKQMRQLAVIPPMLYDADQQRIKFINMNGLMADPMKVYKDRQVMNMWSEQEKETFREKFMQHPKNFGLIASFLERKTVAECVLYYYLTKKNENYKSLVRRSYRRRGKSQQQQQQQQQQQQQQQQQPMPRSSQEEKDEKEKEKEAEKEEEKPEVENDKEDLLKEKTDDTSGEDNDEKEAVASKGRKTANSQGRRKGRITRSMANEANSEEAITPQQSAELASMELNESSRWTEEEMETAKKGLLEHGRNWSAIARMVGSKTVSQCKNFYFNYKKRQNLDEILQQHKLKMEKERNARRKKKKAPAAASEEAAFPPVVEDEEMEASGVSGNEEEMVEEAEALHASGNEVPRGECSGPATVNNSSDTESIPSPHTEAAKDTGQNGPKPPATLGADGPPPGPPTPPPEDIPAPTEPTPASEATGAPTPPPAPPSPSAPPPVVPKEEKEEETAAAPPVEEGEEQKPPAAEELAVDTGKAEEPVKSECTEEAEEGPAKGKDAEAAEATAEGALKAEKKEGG

human HDAC8 = human HDAC8 (Homo sapiens (Human), UniProt Q9BY41); experiment: HDAC8 inhibition assay (modified FLUOR DE LYS, 384-well); format: biochemical; conditions: […] nM enzyme, 200 μM substrate BML-KI178, 3 h pre-incubation; read-out: HDAC8 IC50
Chain of human HDAC8 (Q9BY41 whole entry): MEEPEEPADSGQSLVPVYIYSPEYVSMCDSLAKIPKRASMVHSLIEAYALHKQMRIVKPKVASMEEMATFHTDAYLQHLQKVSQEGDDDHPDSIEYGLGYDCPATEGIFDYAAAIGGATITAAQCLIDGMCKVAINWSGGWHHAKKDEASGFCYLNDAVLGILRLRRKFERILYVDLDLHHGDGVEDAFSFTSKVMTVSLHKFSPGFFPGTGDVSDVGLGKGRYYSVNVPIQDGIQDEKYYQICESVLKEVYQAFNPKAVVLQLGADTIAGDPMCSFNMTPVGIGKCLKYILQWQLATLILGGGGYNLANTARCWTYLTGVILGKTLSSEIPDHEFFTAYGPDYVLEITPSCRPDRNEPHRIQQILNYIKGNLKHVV

KARN cells (Jurkat 2C4) = experiment: cells; conditions: Homo sapiens
Protocol: KARN Assay Cell Maintenance
KARN cells (Jurkat 2C4) were licensed from the laboratory of Dr. John Karn, Case Western Reserve University, School of Medicine. […] An atmosphere of 5% CO2 and 90% humidity was used for all culture work.
These flasks were returned to the incubator.
The cells were gently resuspended in assay media (30 ml) and pelleted again. […] The cells were counted using the ViCell (Beckman Coulter) and diluted as necessary. […] The plates were covered and returned to the incubator prior to compound addition.
The reference compounds, DMSO and SAHA were then added to the compound plate. […] The final high concentration for SAHA and the test compounds in the assays was 40 μM. The final DMSO concentration in all wells was 0.4%. The minimal induction reference compound used was DMSO and the maximal induction reference compound used was SAHA (2 μM final concentration in the assay).
Day 3: The luciferase detection reagent was prepared by transferring the contents of one bottle of Steady-Glo buffer to one bottle of Steady-Glo aubstrate (Steady-Glo Luciferase Assay System, Promega, catalog number E2520), followed by gently mixing until the substrate was thoroughly dissolved and the solution was equilibrated to room temperature. […] The Steady-Glo Reagent was added to the plates (30 μl/well), which were then covered with a black lid and incubated for 10 minutes at room temperature. The plates were then read for luminescence on an Envision (Perkin Elmer) using the ultrasensitive mode (US LUM), 0.1 counts per second and 384-well aperture. Luminescence counts in the DMSO reference wells were considered as 0% induction, while those in the 2 μM SAHA reference wells were considered as 100% induction. Dose response curves were plotted as test compound concentration (X-axis) vs. percent activation (Y-axis) using a 4-parameter fit based on the Levenberg-Marquardt algorithm.

[2] = read-out: Karn EC50 nM 0.1% NHS, 0.1% normal human serum, luciferase induction, 2 μM SAHA = 100%
[3] = read-out: Karn EC50 nM 5% NHS, 5% normal human serum, luciferase induction, 2 μM SAHA = 100%

Chain of HDAC6 (Q9UBN7 whole entry): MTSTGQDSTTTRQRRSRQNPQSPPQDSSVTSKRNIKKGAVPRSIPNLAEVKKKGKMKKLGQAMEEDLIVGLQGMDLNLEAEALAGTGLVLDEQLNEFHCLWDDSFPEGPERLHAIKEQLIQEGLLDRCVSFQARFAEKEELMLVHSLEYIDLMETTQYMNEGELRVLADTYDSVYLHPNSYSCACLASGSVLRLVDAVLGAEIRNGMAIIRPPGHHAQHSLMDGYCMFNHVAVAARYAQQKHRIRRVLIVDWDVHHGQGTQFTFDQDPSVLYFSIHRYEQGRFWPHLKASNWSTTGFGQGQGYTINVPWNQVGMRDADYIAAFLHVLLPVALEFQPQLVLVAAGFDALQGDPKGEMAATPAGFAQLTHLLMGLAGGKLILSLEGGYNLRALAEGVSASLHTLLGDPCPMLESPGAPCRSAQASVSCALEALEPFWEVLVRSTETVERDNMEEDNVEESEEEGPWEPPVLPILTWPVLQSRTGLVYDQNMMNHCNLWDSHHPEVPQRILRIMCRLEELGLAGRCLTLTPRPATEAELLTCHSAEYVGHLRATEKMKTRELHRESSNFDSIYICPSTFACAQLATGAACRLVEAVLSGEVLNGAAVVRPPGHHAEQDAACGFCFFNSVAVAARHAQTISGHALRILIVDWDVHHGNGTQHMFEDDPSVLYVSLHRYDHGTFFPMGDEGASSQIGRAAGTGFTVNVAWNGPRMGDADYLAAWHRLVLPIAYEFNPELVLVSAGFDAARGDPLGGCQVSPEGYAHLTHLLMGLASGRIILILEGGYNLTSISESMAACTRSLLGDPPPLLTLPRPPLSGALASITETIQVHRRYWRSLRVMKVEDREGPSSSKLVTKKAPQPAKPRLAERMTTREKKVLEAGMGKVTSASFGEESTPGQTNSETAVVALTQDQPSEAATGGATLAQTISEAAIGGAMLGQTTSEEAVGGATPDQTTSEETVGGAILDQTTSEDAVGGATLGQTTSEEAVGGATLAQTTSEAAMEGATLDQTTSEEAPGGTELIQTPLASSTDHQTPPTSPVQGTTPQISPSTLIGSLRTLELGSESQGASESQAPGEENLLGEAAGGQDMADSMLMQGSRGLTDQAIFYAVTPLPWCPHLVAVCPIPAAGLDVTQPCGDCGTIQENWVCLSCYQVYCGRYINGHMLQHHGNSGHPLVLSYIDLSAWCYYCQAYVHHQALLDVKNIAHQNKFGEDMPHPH

Row | Compound | IC50 (HDAC6) | IC50 (human HDAC2) | IC50 (human HDAC1) | IC50 [1] | IC50 (human HDAC8) | EC50 (KARN cells (Jurkat 2C4); [2]) | EC50 (KARN cells (Jurkat 2C4); [3])
1 | COc1cc2ncccc2cc1-c1c[nH]c([C@@H](N)CCCCCC(=O)c2ncco2)n1 [Example 23, (S)-7-amino-7-(4-(7-methoxyquinolin-6-yl)-1H-imidazol-2-yl)-1-(oxazol-2-yl)heptan-1-one] | 31 µM | 9.5 nM | 0.0019 µM | 0.0018 µM | 660 nM | 100 nM | 210 nM
2 | COc1nc(C2CC2)ccc1-c1c[nH]c([C@@H](N)CCCCCC(=O)c2ncco2)n1 [Example 24, (S)-7-amino-7-(4-(6-cyclopropyl-2-methoxypyridin-3-yl)-1H-imidazol-2-yl)-1-(oxazol-2-yl)heptan-1-one] | ≥ 45 µM | 39 nM | 0.0071 µM | 0.0035 µM | 3200 nM | 1400 nM | 2000 nM
3 | N[C@@H](CCCCCC(=O)c1ncco1)c1[nH]c(-c2ccc(F)cc2)nc1Cl [Example 25, (S)-7-amino-7-(4-chloro-2-(4-fluorophenyl)-1H-imidazol-5-yl)-1-(oxazol-2-yl)heptan-1-one] | ≥ 45 µM | 5 nM | 0.00066 µM | 0.00038 µM | 6300 nM | 340 nM | 650 nM
4 | Cc1ccc2cc(-c3cnc(C(N)CCCCCC(=O)c4ncco4)o3)ccc2n1 (centres unmarked) [Example 26, 7-amino-7-(5-(2-methylquinolin-6-yl)oxazol-2-yl)-1-(oxazol-2-yl)heptan-1-one] | ≥ 45 µM | 35 nM | 0.011 µM | 0.013 µM | 8000 nM | 6200 nM | 6900 nM
5 | COc1ncccc1-c1cnc([C@@H](N)CCCCCC(=O)c2ncco2)o1 [Example 28, (S)-7-amino-7-(5-(2-methoxypyridin-3-yl)oxazol-2-yl)-1-(oxazol-2-yl)heptan-1-one] | 0.655 µM | 32 nM | 0.009 µM | 0.0094 µM | > 900 nM | 1900 nM | 2000 nM
6 | Cc1ccc2cc(-c3cn(C)c([C@@H](N)CCCCCC(=O)c4ncco4)n3)ccc2n1 [Example 29, (S)-7-amino-7-(1-methyl-4-(2-methylquinolin-6-yl)-1H-imidazol-2-yl)-1-(oxazol-2-yl)heptan-1-one] | 5.16 µM | 63 nM | 0.015 µM | 0.018 µM | 20000 nM | 1800 nM | 1800 nM
7 | COc1cc2nc(C)ccc2cc1-c1c[nH]c([C@@H](N)CCCCCC(=O)c2ccon2)n1 [Example 31, (S)-7-amino-1-(isoxazol-3-yl)-7-(4-(7-methoxy-2-methylquinolin-6-yl)-1H-imidazol-2-yl)heptan-1-one] | 22 µM | 4.3 nM | 0.0014 µM | 0.0018 µM | 100 nM | 18 nM | 26 nM
8 | COc1ncccc1-c1c[nH]c([C@@H](N)CCCCCC(=O)c2ccon2)n1 [Example 33, (S)-7-amino-1-(isoxazol-3-yl)-7-(4-(2-methoxypyridin-3-yl)-1H-imidazol-2-yl)heptan-1-one] | ≥ 45 µM | 4.3 nM | 0.00073 µM | 0.00084 µM | 110 nM | 61 nM | 84 nM
9 | O=C1CC[C@](CCCCCC(=O)c2ncco2)(c2ncc(-c3ccc(F)cc3)[nH]2)N1 [Example 65, (R)-5-(5-(4-fluorophenyl)-1H-imidazol-2-yl)-5-(6-(oxazol-2-yl)-6-oxohexyl)pyrrolidin-2-one] | ≥ 45 µM | 11 nM | 0.0022 µM | 0.0022 µM | 3100 nM | 470 nM | 630 nM
10 | O=C1NC(CCCCCC(=O)c2ncco2)(c2nc(-c3ccc(F)cc3)c[nH]2)CO1 (centres unmarked) [Example 66, 4-(4-(4-fluorophenyl)-1H-imidazol-2-yl)-4-(6-(oxazol-2-yl)-6-oxohexyl)oxazolidin-2-one] | ≥ 45 µM | 15 nM | 0.0044 µM | 0.0031 µM | 4400 nM | 380 nM | 530 nM
11 | O=C1CC[C@@](CCCCCC(=O)c2ccon2)(c2nc(-c3ccc(-c4ncco4)cc3F)c[nH]2)N1 [Example 67, (S)-5-(4-(2-fluoro-4-(oxazol-2-yl)phenyl)-1H-imidazol-2-yl)-5-(6-(isoxazol-3-yl)-6-oxohexyl)pyrrolidin-2-one] | ≥ 45 µM | 4.3 nM | 0.0018 µM | 0.0015 µM | 400 nM | 51 nM | 95 nM
12 | O=C1CC[C@@](CCCCCC(=O)c2ccon2)(c2nc(-c3ccc(C4CC4)cc3F)c[nH]2)N1 [Example 68, (S)-5-(4-(4-cyclopropyl-2-fluorophenyl)-1H-imidazol-2-yl)-5-(6-(isoxazol-3-yl)-6-oxohexyl)pyrrolidin-2-one] | > 0.9 µM | 5 nM | 0.001 µM | 0.00055 µM | 230 nM | 34 nM | 110 nM
13 | O=C1CC[C@@](CCCCCC(=O)c2ccon2)(c2nc(-c3ccccc3F)c[nH]2)N1 [Example 69, (S)-5-(4-(2-fluorophenyl)-1H-imidazol-2-yl)-5-(6-(isoxazol-3-yl)-6-oxohexyl)pyrrolidin-2-one] | > 0.9 µM | 4.2 nM | 0.00092 µM | 0.00079 µM | 210 nM | 96 nM | 260 nM
14 | COc1cc2nc(C)ccc2cc1-c1cnc([C@@]2(CCCCCC(=O)c3ccon3)CCC(=O)N2)[nH]1 [Example 70, (R)-5-(6-(isoxazol-3-yl)-6-oxohexyl)-5-(5-(7-methoxy-2-methylquinolin-6-yl)-1H-imidazol-2-yl)pyrrolidin-2-one] | > 0.9 µM | 3.5 nM | 0.00078 µM | 0.0011 µM | 260 nM | 31 nM | 110 nM
15 | COc1ncccc1-c1c[nH]c([C@]2(CCCCCC(=O)c3ccon3)CCCC(=O)N2)n1 [Example 71, (S)-6-(6-(isoxazol-3-yl)-6-oxohexyl)-6-(4-(2-methoxypyridin-3-yl)-1H-imidazol-2-yl)piperidin-2-one] | > 0.9 µM | 6.1 nM | 0.00119 µM | 0.0018 µM | 690 nM | 330 nM | 490 nM
16 | O=C1CCCC[C@@](CCCCCC(=O)c2ccon2)(c2nc(-c3ccccc3F)c[nH]2)N1 [Example 72, (S)-7-(4-(2-fluorophenyl)-1H-imidazol-2-yl)-7-(6-(isoxazol-3-yl)-6-oxohexyl)azepan-2-one] | > 0.9 µM | 89 nM | 0.017 µM | 0.017 µM | > 900 nM | 650 nM | 1900 nM
17 | COc1nc2ccccc2cc1-c1cnc(CCCCCCC(=O)c2ncco2)[nH]1 [Example 73, 7-(5-(2-methoxyquinolin-3-yl)-1H-imidazol-2-yl)-1-(oxazol-2-yl)heptan-1-one] | 2.5 µM | 16 nM | 0.0033 µM | 0.0042 µM | 3900 nM | 840 nM | 15 nM
